From ChEMBL document CHEMBL3525955, “Glucuronidation of the red clover isoflavone irilone by liver microsomes from different species and human UDP-glucuronosyltransferases” (Drug Metab Dispos, 2011)

How the values were obtained:
[1] = molecular target: T1, UDP-glucuronosyltransferase 1A8 (Homo sapiens, UniProt Q9HAW9); test: Drug metabolism assessed as human recombinant UGT1A8-mediated irilone-O-5-monoglucuronide formation at 25 uM incubated for 5 mins prior to UDPGA addition measured after 90 mins by HPLC-DAD analysis; format: ADME; conditions: recombinant enzyme, 1.5 h
T1 sequence (Q9HAW9 whole entry): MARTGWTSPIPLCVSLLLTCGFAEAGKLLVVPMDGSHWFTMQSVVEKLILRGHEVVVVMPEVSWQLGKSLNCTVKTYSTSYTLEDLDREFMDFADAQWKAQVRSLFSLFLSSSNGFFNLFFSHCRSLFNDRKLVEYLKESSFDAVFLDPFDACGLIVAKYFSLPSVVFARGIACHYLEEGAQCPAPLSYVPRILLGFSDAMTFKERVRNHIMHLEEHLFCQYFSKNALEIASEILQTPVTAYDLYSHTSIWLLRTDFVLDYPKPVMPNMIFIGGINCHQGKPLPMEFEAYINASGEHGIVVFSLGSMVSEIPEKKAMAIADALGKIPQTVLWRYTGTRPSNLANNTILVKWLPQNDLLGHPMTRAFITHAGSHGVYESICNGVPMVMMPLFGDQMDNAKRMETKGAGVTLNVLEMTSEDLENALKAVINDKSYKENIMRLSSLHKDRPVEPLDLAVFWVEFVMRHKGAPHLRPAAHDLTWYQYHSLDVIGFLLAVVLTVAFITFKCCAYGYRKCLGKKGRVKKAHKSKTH

[2] = molecular target: T2, UDP-glucuronosyltransferase 1A9 (Homo sapiens, UniProt O60656); test: Drug metabolism assessed as human recombinant UGT1A9-mediated irilone-O-5-monoglucuronide formation incubated for 5 mins prior to UDPGA addition measured after 90 mins by HPLC-DAD analysis; format: ADME; conditions: recombinant enzyme, 1.5 h
T2 sequence (O60656 whole entry): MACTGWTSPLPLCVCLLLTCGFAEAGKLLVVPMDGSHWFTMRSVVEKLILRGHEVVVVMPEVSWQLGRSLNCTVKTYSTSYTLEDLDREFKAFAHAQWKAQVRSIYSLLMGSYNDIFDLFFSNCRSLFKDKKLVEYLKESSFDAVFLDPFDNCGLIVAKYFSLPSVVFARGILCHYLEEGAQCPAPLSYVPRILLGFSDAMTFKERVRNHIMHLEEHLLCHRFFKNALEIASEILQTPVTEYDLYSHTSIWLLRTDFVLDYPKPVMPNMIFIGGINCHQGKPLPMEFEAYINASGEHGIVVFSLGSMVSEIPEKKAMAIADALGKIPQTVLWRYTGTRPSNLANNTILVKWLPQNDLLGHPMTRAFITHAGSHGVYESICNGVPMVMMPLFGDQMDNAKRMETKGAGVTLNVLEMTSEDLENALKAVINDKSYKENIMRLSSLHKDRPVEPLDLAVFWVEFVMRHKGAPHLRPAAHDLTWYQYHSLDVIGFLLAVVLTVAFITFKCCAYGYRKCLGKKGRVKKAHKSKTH

[3] = tested on: Liver microsome; test: Intrinsic clearance in human liver microsomes incubated for 5 mins prior to UDPGA addition measured after 90 mins; format: ADME; conditions: 1.5 h
[4] = tested on: Liver microsome; test: Intrinsic clearance in Sprague-Dawley rat liver microsomes incubated for 5 mins prior to UDPGA addition measured after 90 mins; format: ADME; conditions: 1.5 h
[5] = Intrinsic clearance in pig liver microsomes incubated for 5 mins prior to UDPGA addition measured after 90 mins; format: ADME, Sus scrofa; conditions: 1.5 h
[6] = Drug metabolism in pig liver microsomes assessed as substrate inhibition of IRI-O-5-monoglucuronide formation incubated for 5 mins prior to UDPGA addition measured after 90 mins by Eadie-Hoftsee plot analysis; format: ADME, Sus scrofa
[7] = Drug metabolism in pig liver microsomes assessed as IRI-O-5-monoglucuronide formation incubated for 5 mins prior to UDPGA addition measured after 90 mins by Eadie-Hoftsee plot analysis; format: ADME, Sus scrofa; conditions: 1.5 h
[8] = molecular target: T3, UDP-glucuronosyltransferase 1A7 (Homo sapiens, UniProt Q9HAW7); test: Substrate inhibition of human recombinant UGT1A7 assessed as IRI-O-5-monoglucuronide formation incubated for 5 mins prior to UDPGA addition measured after 90 mins by Eadie-Hoftsee plot analysis; format: ADME
T3 sequence (Q9HAW7 whole entry): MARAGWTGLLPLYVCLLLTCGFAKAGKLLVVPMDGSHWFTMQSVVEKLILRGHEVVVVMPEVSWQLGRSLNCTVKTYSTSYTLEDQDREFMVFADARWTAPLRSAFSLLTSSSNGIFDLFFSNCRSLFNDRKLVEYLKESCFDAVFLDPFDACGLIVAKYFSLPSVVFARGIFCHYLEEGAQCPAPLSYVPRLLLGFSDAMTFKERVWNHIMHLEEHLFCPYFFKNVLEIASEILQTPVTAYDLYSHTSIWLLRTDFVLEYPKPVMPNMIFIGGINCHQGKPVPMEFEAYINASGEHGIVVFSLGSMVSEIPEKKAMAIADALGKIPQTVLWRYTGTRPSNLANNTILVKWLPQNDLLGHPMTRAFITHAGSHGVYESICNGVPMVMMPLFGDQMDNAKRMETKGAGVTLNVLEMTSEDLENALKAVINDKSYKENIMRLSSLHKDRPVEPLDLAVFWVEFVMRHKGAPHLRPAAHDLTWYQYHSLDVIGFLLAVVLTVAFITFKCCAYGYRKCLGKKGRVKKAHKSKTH

[9] = molecular target: Liver microsome; test: Drug metabolism in human liver microsomes assessed as substrate inhibition of IRI-O-4'-monoglucuronide formation incubated for 5 mins prior to UDPGA addition measured after 90 mins by Eadie-Hoftsee plot analysis; format: ADME
[10] = molecular target: T4, UDP-glucuronosyltransferase 1A10 (Homo sapiens, UniProt Q9HAW8); test: Substrate inhibition of human recombinant UGT1A10 assessed as IRI-O-5-monoglucuronide formation incubated for 5 mins prior to UDPGA addition measured after 90 mins by Eadie-Hoftsee plot analysis; format: ADME
T4 sequence (Q9HAW8 whole entry): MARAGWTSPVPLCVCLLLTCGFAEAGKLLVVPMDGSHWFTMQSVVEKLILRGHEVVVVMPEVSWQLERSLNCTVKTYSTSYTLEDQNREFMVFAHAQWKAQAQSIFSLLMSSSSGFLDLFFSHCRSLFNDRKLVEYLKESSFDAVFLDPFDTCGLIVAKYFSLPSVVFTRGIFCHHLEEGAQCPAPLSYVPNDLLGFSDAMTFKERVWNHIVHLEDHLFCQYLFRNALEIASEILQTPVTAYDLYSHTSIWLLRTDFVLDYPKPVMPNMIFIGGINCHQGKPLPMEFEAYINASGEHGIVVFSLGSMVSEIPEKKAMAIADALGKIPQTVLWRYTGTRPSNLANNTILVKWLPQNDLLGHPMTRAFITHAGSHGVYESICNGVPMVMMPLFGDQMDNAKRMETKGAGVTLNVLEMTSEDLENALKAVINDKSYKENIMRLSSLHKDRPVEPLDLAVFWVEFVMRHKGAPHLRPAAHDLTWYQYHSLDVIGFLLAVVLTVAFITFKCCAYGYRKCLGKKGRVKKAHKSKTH

- Drug metabolism [1]: metabolite_detected
- Drug metabolism [2]: metabolite_detected
- CLH [3]: 48500 µL/min/mg
- CLH [4]: 51000 µL/min/mg
- CLH [5]: 71800 µL/min/mg
- Ki [6]: 183 µM
- Km [7]: 16.8 µM
- Vmax [7]: 0.28 nmol/mg/min
- Ki [8]: 101 µM
- Ki [9]: 50.9 µM
- Ki [10]: Not Active
SMILES: O=c1c(-c2ccc(O)cc2)coc2cc3c(c(O)c12)OCO3
